Test results as given in ChEMBL document CHEMBL3885881, “DrugMatrix”.

Organism: Rattus norvegicus
Assay: DrugMatrix - Regimen: Daily Repeat
Format: toxicity, organism-based, Sprague-Dawley
Design: regimen Daily Repeat, gender Male, age 6-8 weeks
Details: in vivo, po, route oral GAVAGE, […]; for ABSOLUTE BASOPHIL / ABSOLUTE EOSINOPHIL / ABSOLUTE LYMPHOCYTE / ABSOLUTE MONOCYTE / ABSOLUTE SEGMENTED NEUTROPHIL / BASOPHIL / EOSINOPHIL / ERYTHROCYTE COUNT / HEMATOCRIT / HEMOGLOBIN / LEUKOCYTE COUNT / LYMPHOCYTE / MEAN CORPUSCULAR HEMOGLOBIN / MEAN CORPUSCULAR HEMOGLOBIN CONCENTRATION / MEAN CORPUSCULAR VOLUME / MONOCYTE / NEUTROPHIL / NUCLEATED RED BLOOD CELLS / PLATELET COUNT: tissue Blood; for ALANINE AMINOTRANSFERASE / ALBUMIN / ALKALINE PHOSPHATASE / ASPARTATE AMINOTRANSFERASE / BLOOD UREA NITROGEN / CARBON DIOXIDE / CHLORIDE / CHOLESTEROL / CREATINE PHOSPHOKINASE / CREATININE / GLUCOSE / LACTATE DEHYDROGENASE / LIPASE / PHOSPHORUS / POTASSIUM / SODIUM / TOTAL BILIRUBIN / TOTAL PROTEIN / URIC ACID: tissue Plasma
[1] = 0 mg/kg, 72 h, dose level Control, time 3 day
[2] = 0 mg/kg, 120 h, dose level Control, time 5 day
[3] = 10 mg/kg, 72 h, dose level Low, time 3 day
[4] = 10 mg/kg, 120 h, dose level Low, time 5 day

In the case of `OC(Cn1cncn1)(Cn1cncn1)c1ccc(F)cc1F` [FLUCONAZOLE], the “ABSOLUTE BASOPHIL” value [1] is reported as 0 CELLS/uL, the “ABSOLUTE EOSINOPHIL” value [1] is reported as 104.17 CELLS/uL and the “ABSOLUTE LYMPHOCYTE” value [1] is reported as 14547 CELLS/uL. For the same compound, the “ABSOLUTE MONOCYTE” value [1] was 292 CELLS/uL, the “ABSOLUTE SEGMENTED NEUTROPHIL” value [1] was 1640.17 CELLS/uL and the BASOPHIL [1] was 0%. For the same compound, the EOSINOPHIL [1] was 0.67%, the “ERYTHROCYTE COUNT” value [1] was 5.35 x10E6/uL and the HEMATOCRIT [1] was 33.67%. For the same compound, the HEMOGLOBIN [1] was 13.38 G/DL, the “LEUKOCYTE COUNT” value [1] was 16.58 x10E3/uL and the LYMPHOCYTE [1] was 87.5%. For the same compound, the “MEAN CORPUSCULAR HEMOGLOBIN” value [1] was 25.05 pg, the “MEAN CORPUSCULAR HEMOGLOBIN CONCENTRATION” value [1] was 39.78 G/DL and the “MEAN CORPUSCULAR VOLUME” value [1] was 62.97 fL. The MONOCYTE [1] was 1.83%, the NEUTROPHIL [1] was 10% and the “NUCLEATED RED BLOOD CELLS” value [1] was 0 /100WBC. For the same compound, the “PLATELET COUNT” value [1] was 1274.5 x10E3/uL, the “ALANINE AMINOTRANSFERASE” value [1] was 76.83 u/L and the ALBUMIN [1] was 3.97 G/DL. For the same compound, the “ALKALINE PHOSPHATASE” value [1] was 347 u/L, the “ASPARTATE AMINOTRANSFERASE” value [1] was 97.17 u/L and the “BLOOD UREA NITROGEN” value [1] was 14.33 mg/dL. The “CARBON DIOXIDE” value [1] was 25.5 mmol/L, the CHLORIDE [1] was 100.33 MEQ/L and the CHOLESTEROL [1] was 68.67 mg/dL. The “CREATINE PHOSPHOKINASE” value [1] was 659.17 u/L, the CREATININE [1] was 0.32 mg/dL and the GLUCOSE [1] was 160.67 mg/dL. The “LACTATE DEHYDROGENASE” value [1] was 271.5 u/L, the LIPASE [1] was 11.67 u/L and the PHOSPHORUS [1] was 10.65 mg/dL. The POTASSIUM [1] was 5.95 MEQ/L, the SODIUM [1] was 139.65 MEQ/L and the “TOTAL BILIRUBIN” value [1] was 0.2 mg/dL. The “TOTAL PROTEIN” value [1] was 5.72 G/DL, the “URIC ACID” value [1] was 1.37 mg/dL and the “ABSOLUTE BASOPHIL” value [2] was 0 CELLS/uL. The “ABSOLUTE EOSINOPHIL” value [2] was 331.5 CELLS/uL, the “ABSOLUTE LYMPHOCYTE” value [2] was 15021.67 CELLS/uL and the “ABSOLUTE MONOCYTE” value [2] was 376.5 CELLS/uL. The “ABSOLUTE SEGMENTED NEUTROPHIL” value [2] was 3070.33 CELLS/uL, the BASOPHIL [2] was 0% and the EOSINOPHIL [2] was 1.83%. The “ERYTHROCYTE COUNT” value [2] was 5.24 x10E6/uL, the HEMATOCRIT [2] was 33.22% and the HEMOGLOBIN [2] was 13.2 G/DL. For the same compound, the “LEUKOCYTE COUNT” value [2] was 18.8 x10E3/uL, the LYMPHOCYTE [2] was 79.67% and the “MEAN CORPUSCULAR HEMOGLOBIN” value [2] was 25.17 pg. The “MEAN CORPUSCULAR HEMOGLOBIN CONCENTRATION” value [2] was 39.73 G/DL, the “MEAN CORPUSCULAR VOLUME” value [2] was 63.38 fL and the MONOCYTE [2] was 2%. The NEUTROPHIL [2] was 16.5%, the “NUCLEATED RED BLOOD CELLS” value [2] was 0 /100WBC and the “PLATELET COUNT” value [2] was 1142.67 x10E3/uL. The “ALANINE AMINOTRANSFERASE” value [2] was 52.5 u/L, the ALBUMIN [2] was 3.9 G/DL and the “ALKALINE PHOSPHATASE” value [2] was 284.5 u/L. The “ASPARTATE AMINOTRANSFERASE” value [2] was 81.33 u/L, the “BLOOD UREA NITROGEN” value [2] was 16 mg/dL and the “CARBON DIOXIDE” value [2] was 25.33 mmol/L. For the same compound, the CHLORIDE [2] was 99.5 MEQ/L, the CHOLESTEROL [2] was 74.83 mg/dL and the “CREATINE PHOSPHOKINASE” value [2] was 448.33 u/L. The CREATININE [2] was 0.37 mg/dL, the GLUCOSE [2] was 164.17 mg/dL and the “LACTATE DEHYDROGENASE” value [2] was 290.67 u/L. The LIPASE [2] was 6.83 u/L, the PHOSPHORUS [2] was 11.5 mg/dL and the POTASSIUM [2] was 6.28 MEQ/L. The SODIUM [2] was 139.5 MEQ/L, the “TOTAL BILIRUBIN” value [2] was 0.13 mg/dL and the “TOTAL PROTEIN” value [2] was 5.55 G/DL. The “URIC ACID” value [2] was 1.12 mg/dL, the “ABSOLUTE BASOPHIL” value [3] was 0 CELLS/uL and the “ABSOLUTE EOSINOPHIL” value [3] was 105 CELLS/uL. For the same compound, the “ABSOLUTE LYMPHOCYTE” value [3] was 3531.33 CELLS/uL, the “ABSOLUTE MONOCYTE” value [3] was 187.33 CELLS/uL and the “ABSOLUTE SEGMENTED NEUTROPHIL” value [3] was 2209.67 CELLS/uL. For the same compound, the BASOPHIL [3] was 0%, the EOSINOPHIL [3] was 1.67% and the “ERYTHROCYTE COUNT” value [3] was 5.95 x10E6/uL. For the same compound, the HEMATOCRIT [3] was 39.17%, the HEMOGLOBIN [3] was 15.1 G/DL and the “LEUKOCYTE COUNT” value [3] was 6.03 x10E3/uL. For the same compound, the LYMPHOCYTE [3] was 58%, the “MEAN CORPUSCULAR HEMOGLOBIN” value [3] was 25.67 pg and the “MEAN CORPUSCULAR HEMOGLOBIN CONCENTRATION” value [3] was 38.63 G/DL. For the same compound, the “MEAN CORPUSCULAR VOLUME” value [3] was 66.27 fL, the MONOCYTE [3] was 3% and the NEUTROPHIL [3] was 37.33%. For the same compound, the “NUCLEATED RED BLOOD CELLS” value [3] was 0 /100WBC, the “PLATELET COUNT” value [3] was 1032.33 x10E3/uL and the “ALANINE AMINOTRANSFERASE” value [3] was 59.33 u/L. The ALBUMIN [3] was 4.63 G/DL, the “ALKALINE PHOSPHATASE” value [3] was 452.67 u/L and the “ASPARTATE AMINOTRANSFERASE” value [3] was 96 u/L. The “BLOOD UREA NITROGEN” value [3] was 19.33 mg/dL, the “CARBON DIOXIDE” value [3] was 20.67 mmol/L and the CHLORIDE [3] was 101.33 MEQ/L. The CHOLESTEROL [3] was 45.67 mg/dL, the “CREATINE PHOSPHOKINASE” value [3] was 639.33 u/L and the CREATININE [3] was 0.14 mg/dL. For the same compound, the GLUCOSE [3] was 174 mg/dL, the “LACTATE DEHYDROGENASE” value [3] was 123 u/L and the LIPASE [3] was 24.67 u/L. It also gave a PHOSPHORUS [3] of 11.63 mg/dL, a POTASSIUM [3] of 6.15 MEQ/L and an SODIUM [3] of 142.57 MEQ/L. The “TOTAL BILIRUBIN” value [3] was 0.23 mg/dL, the “TOTAL PROTEIN” value [3] was 6.43 G/DL and the “URIC ACID” value [3] was 1.47 mg/dL. The “ABSOLUTE BASOPHIL” value [4] was 0 CELLS/uL, the “ABSOLUTE EOSINOPHIL” value [4] was 0 CELLS/uL and the “ABSOLUTE LYMPHOCYTE” value [4] was 10059.67 CELLS/uL. The “ABSOLUTE MONOCYTE” value [4] was 397 CELLS/uL, the “ABSOLUTE SEGMENTED NEUTROPHIL” value [4] was 1576.67 CELLS/uL and the BASOPHIL [4] was 0%. For the same compound, the EOSINOPHIL [4] was 0%, the “ERYTHROCYTE COUNT” value [4] was 6.01 x10E6/uL and the HEMATOCRIT [4] was 38.4%. The HEMOGLOBIN [4] was 14.77 G/DL, the “LEUKOCYTE COUNT” value [4] was 12.03 x10E3/uL and the LYMPHOCYTE [4] was 83.33%. The “MEAN CORPUSCULAR HEMOGLOBIN” value [4] was 24.57 pg, the “MEAN CORPUSCULAR HEMOGLOBIN CONCENTRATION” value [4] was 38.5 G/DL and the “MEAN CORPUSCULAR VOLUME” value [4] was 63.9 fL. For the same compound, the MONOCYTE [4] was 3.33%, the NEUTROPHIL [4] was 13.33% and the “NUCLEATED RED BLOOD CELLS” value [4] was 0.33 /100WBC. The “PLATELET COUNT” value [4] was 1300 x10E3/uL, the “ALANINE AMINOTRANSFERASE” value [4] was 78.67 u/L and the ALBUMIN [4] was 4.23 G/DL. The “ALKALINE PHOSPHATASE” value [4] was 452.67 u/L, the “ASPARTATE AMINOTRANSFERASE” value [4] was 86.67 u/L and the “BLOOD UREA NITROGEN” value [4] was 10.67 mg/dL. For the same compound, the “CARBON DIOXIDE” value [4] was 27 mmol/L, the CHLORIDE [4] was 100.67 MEQ/L and the CHOLESTEROL [4] was 56 mg/dL. For the same compound, the “CREATINE PHOSPHOKINASE” value [4] was 230.33 u/L, the CREATININE [4] was 0.11 mg/dL and the GLUCOSE [4] was 169.67 mg/dL. For the same compound, the “LACTATE DEHYDROGENASE” value [4] was 181.33 u/L, the LIPASE [4] was 6.67 u/L and the PHOSPHORUS [4] was 11.83 mg/dL. For the same compound, the POTASSIUM [4] was 5.55 MEQ/L, the SODIUM [4] was 141.67 MEQ/L and the “TOTAL BILIRUBIN” value [4] was 0.2 mg/dL. The “TOTAL PROTEIN” value [4] was 6.23 G/DL and the “URIC ACID” value [4] was 1.3 mg/dL.
